The results in this text go back to US6949544B2, “Inhibitors of c-Jun N-terminal kinases (JNK) and other protein kinases” (Vertex Pharmaceuticals Incorporated, priority 2001, dated 2005).

Format in all cases: biochemical
Experiment [1] concerns the target Glycogen Synthase Kinase 3 (GSK-3) (Homo sapiens, UniProt P49841). The experiment in a line: GSK-3 inhibition assay (standard coupled enzyme assay). The settings on record: 60 nM GSK-3, 10 μM ATP; read-out: GSK-3 Inhibitory Activity (Ki rating A-C). The procedure: Compounds were screened in the following manner for their ability to inhibit Glycogen Synthase Kinase 3 (GSK-3) using a standard coupled enzyme assay (Fox et al (1998) Protein Sci 7, 2249). To an assay stock buffer solution containing 0.1M HEPES 7.5, 10 mM MgCl2, 25 mM NaCl, 2.5 mM phosphoenolpyruvate, 300 μM NADH, 1 mM DTT, 30 μg/mL pyruvate kinase, 10 μg/mL lactate dehydrogenase, 300 μM peptide (HSSPHQp-SEDEEE, American Peptide, Sunnyvale, Calif.), and 60 nM GSK-3, was added a 30 μM solution of the compound in DMSO and the resulting mixture incubated at 30° C. for 5 min. The reaction was initiated by the addition of 10 μM ATP. The rates of reaction were obtained by monitoring absorbance at 340 nm over a 5 minute read time at 30° C. using a Molecular Devices plate reader (Sunnyvale, Calif.). The IC50 was determined from the rate data as a function of inhibitor concentration.

In a further experiment the target is CDK-2/Cyclin A (Homo sapiens, UniProt P24941). The experiment in a line: CDK2 inhibition assay (standard coupled enzyme assay). The settings on record: 25 nM CDK-2/Cyclin A; read-out: CDK2 Inhibitory Activity (Ki rating A-C). The procedure: Compounds were screened in the following manner for their ability to inhibit CDK2 using a standard coupled enzyme assay (Fox et al (1998) Protein Sci 7, 2249).
To an assay stock buffer solution containing 0.1M HEPES 7.5, 10 mM MgCl2, 1 mM DTT, 25 mM NaCl, 2.5 mM phosphoenolpyruvate, […], […], […], […], and 100 μM peptide ([…], American Peptide, Sunnyvale, Calif.) was added a DMSO solution of a compound of the present invention to a final concentration of 30 μM. The resulting mixture was incubated at 30° C. for 10 minutes.
The reaction was initiated by the addition of 10 μL of CDK-2/Cyclin A stock solution to give a final concentration of 25 nM in the assay. The rates of reaction were obtained by monitoring absorbance at 340 nm over a 5-minute read time at 30° C. using a BioRad Ultramark plate reader (Hercules, Calif.). The Ki values were determined from the rate data as a function of inhibitor concentration.

Another experiment has as its target T1, activated JNK3 (Homo sapiens, UniProt P53779).
T1 construct: One such construct encodes amino acid residues Ser40-Glu402 of JNK3α1 and is preceded by Met and Gly residues; Met-Gly (initiator methionine and added glycine) (N); made in house; host or cells: E. coli BL21 (DE3)
Kind of experiment: JNK inhibition assay (spectrophotometric coupled-enzyme assay). The settings on record: for Ki: 10 nM activated JNK3, 10 μM ATP, read-out: Activity in the JNK3 Inhibition Assay (Ki rating A-C). The source says: A BLAST search of the EST database using the published JNK3α1 cDNA as a query identified an EST clone (#632588) that contained the entire coding sequence for human JNK3α1. Polymerase chain reactions (PCR) using pfu polymerase (Strategene) were used to introduce restriction sites into the cDNA for cloning into the pET-15B expression vector at the NcoI and BamHI sites. The protein was expressed in E. coli. […] This truncation corresponds to Ser 2 of JNK1 and JNK2 proteins, and is preceded by a methionine (initiation) and a glycine residue. The glycine residue was added in order to introduce an NcoI site for cloning into the expression vector. In addition, systematic C-terminal truncations were performed by PCR to identify a construct that give rise to diffraction-quality crystals.
5 mg of JNK3 was diluted to 0.5 mg/ml in 50 mM HEPES buffer, pH 7.5, containing 100 mM NaCl, 5 mM DTT, 20 mM MgCl2 and 1 mM ATP. GST-MKK7(DD) was added at a molar ratio of 1:2.5 GST-MKK7:JNK3. After incubation for 30 minutes at 25° C., the reaction mixture was concentrated 5-fold by ultrafiltration in a Centriprep-30 (Amicon, Beverly, Mass.), diluted to 10 ml and an additional 1 mM ATP added. This procedure was repeated three times to remove ADP and replenish ATP. The final addition of ATP was 5 mM and the mixture incubated overnight at 4° C.
The activated JNK3/GST-MKK7(DD) reaction mixture was exchanged into 50 mM HEPES buffer, pH 7.5, containing 5 mM DTT and 5% glycerol (w/v) by dialysis or ultrafiltration. The reaction mixture was adjusted to 1.1 M potassium phosphate, pH 7.5, and purified by hydrophobic interaction chromatography (at 25° C.) using a Rainin Hydropore column. […] Activated JNK3 (i.e. doubly phosphorylated JNK3) was stored at −70° C. at 0.25-1 mg/ml.
Compounds were assayed for the inhibition of JNK3 by a spectrophotometric coupled-enzyme assay. In this assay, a fixed concentration of activated JNK3 (10 nM) was incubated with various concentrations of a potential inhibitor dissolved in DMSO for 10 minutes at 30° C. in a buffer containing 0.1 M HEPES buffer, pH 7.5, containing 10 mM MgCl2, 2.5 mM phosphoenolpyruvate, 200 μM NADH, 150 μg/mL pyruvate kinase, 50 μg/mL lactate dehydrogenase, and 200 μM EGF receptor peptide. […] The reaction was initiated by the addition of 10 μM ATP and the assay plate is inserted into the spectrophotometer's assay plate compartment that was maintained at 30° C. The decrease of absorbance at 340 nm was monitored as a function of time. The rate data as a function of inhibitor concentration was fitted to competitive inhibition kinetic model to determine the Ki.

Experiment [2] deals with T2, Lck kinase purified from bovine thymus (Bos taurus, UniProt Q3ZCM0).
T2 construct: Lck kinase purified from bovine thymus; purchased Upstate Biotechnology 14-106; host or cells: bovine thymus (tissue-purified)
Kind of experiment: Lck inhibition assay (33P incorporation into poly Glu-Tyr). The settings on record: 10 μM ATP; read-out: Activity in the Lck Inhibition Assay (Ki rating A-C). The method, then:
The compounds were assayed as inhibitors of Lck kinase purified from bovine thymus (from Upstate Biotechnology, cat. no. 14-106). Lck kinase activity was monitored by following the incorporation of ^33P from ATP into the tyrosine of a random poly Glu-Tyr polymer substrate of composition, Glu:Tyr=4:1 (Sigma, cat. no. P-0275). The following were the final concentrations of the assay components: 0.05 M HEPES, pH 7.6, 10 mM MgCl2, 2 mM DTT, 0.25 mg/ml BSA, 10 μM ATP (1-2 μCi ^33P-ATP per reaction), 5 mg/ml poly Glu-Tyr, and 1-2 units of lck kinase. In a typical assay, all the reaction components with the exception of ATP were pre-mixed and aliquoted into assay plate wells. […] The assay plate was incubated at 30° C. for 10 min before initiating the reaction with ^33P-ATP. After 20 min of reaction, the reactions were quenched with 150 μl of 10% trichloroacetic acid (TCA) containing 20 mM Na3PO4. The quenched samples were then transferred to a 96-well filter plate (Whatman, UNI-Filter GF/F Glass Fiber Filter, cat no. 7700-3310) installed on a filter plate vacuum manifold. Filter plates were washed four times with 10% TCA containing 20 mM Na3PO4 and then 4 times with methanol. 200 μl of scintillation fluid was then added to each well. The plates were sealed and the amount of radioactivity associated with the filters was quantified on a TopCount scintillation counter.

T1 sequence (P53779 40-402): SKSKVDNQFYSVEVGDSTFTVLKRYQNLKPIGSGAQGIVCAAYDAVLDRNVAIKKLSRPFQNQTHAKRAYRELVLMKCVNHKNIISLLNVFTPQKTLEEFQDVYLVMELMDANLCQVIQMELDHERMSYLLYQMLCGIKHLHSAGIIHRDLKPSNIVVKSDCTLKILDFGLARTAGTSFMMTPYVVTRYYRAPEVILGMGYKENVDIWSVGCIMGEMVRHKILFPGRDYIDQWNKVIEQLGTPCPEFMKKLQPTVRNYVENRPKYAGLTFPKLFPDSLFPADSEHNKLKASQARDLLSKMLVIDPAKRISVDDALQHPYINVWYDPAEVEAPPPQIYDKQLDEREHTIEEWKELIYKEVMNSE
Glycogen Synthase Kinase 3 (GSK-3), sequence (P49841 whole entry): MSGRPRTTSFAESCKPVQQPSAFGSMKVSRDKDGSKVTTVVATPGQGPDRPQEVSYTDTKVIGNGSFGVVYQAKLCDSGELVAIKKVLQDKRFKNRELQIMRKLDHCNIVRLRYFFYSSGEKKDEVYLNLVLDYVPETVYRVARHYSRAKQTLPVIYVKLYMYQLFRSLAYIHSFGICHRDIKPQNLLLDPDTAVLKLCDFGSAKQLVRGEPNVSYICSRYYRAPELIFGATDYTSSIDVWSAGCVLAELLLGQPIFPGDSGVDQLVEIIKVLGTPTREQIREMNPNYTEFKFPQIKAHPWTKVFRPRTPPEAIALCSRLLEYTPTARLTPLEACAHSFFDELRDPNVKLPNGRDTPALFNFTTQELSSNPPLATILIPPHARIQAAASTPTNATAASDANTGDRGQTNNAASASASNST
T2 sequence (Q3ZCM0 1-509): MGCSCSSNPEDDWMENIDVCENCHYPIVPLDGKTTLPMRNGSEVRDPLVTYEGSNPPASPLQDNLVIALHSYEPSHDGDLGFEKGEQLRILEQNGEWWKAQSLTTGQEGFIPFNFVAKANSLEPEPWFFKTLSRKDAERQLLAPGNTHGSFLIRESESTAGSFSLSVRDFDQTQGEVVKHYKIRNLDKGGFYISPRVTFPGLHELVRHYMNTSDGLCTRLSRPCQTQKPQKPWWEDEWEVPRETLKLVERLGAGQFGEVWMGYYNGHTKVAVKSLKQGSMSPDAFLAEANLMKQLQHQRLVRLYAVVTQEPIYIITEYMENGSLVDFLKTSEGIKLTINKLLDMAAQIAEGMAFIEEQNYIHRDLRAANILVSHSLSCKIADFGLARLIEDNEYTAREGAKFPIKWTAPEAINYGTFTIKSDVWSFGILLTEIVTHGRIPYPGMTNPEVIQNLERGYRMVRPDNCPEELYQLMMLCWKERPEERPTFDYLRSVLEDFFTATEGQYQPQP

In the case of `COc1cc(-c2ccnc(Nc3ccccc3F)n2)cc(OC)c1OC` [Compound I-5], the Ki (in general, the dissociation constant of the complex between target and ligand, obtained from inhibition or displacement) in experiment [1] was above 1000 nM; on CDK-2/Cyclin A, above 5000 nM; on activated JNK3 it was 100 to 1000 nM.
On to `COc1cc(-c2ccnc(Nc3ccc(Cl)cc3)n2)cc(OC)c1OC` [Compound I-9], for which the Ki is 100 to 1000 nM in experiment [1], above 5000 nM on CDK-2/Cyclin A and below 100 nM on activated JNK3.
On the same counts, the results for `COc1cc(-c2ccnc(Nc3nc(C)cs3)n2)cc(OC)c1OC` [Compound I-10] are 100 to 1000 nM, above 5000 nM and 100 to 1000 nM.
On to `COc1cc(-c2ccnc(Nc3cccc(Cl)c3)n2)cc(OC)c1OC` [Compound I-18], for which the Ki is below 100 nM in experiment [1], above 5000 nM on CDK-2/Cyclin A and below 100 nM at activated JNK3.
As to `COc1cccc(Nc2nccc(-c3cc(OC)c(OC)c(OC)c3)n2)c1` [Compound I-20], the Ki in experiment [1] was 100 to 1000 nM; on CDK-2/Cyclin A it was above 5000 nM; on activated JNK3, below 100 nM.
With `COc1cc(-c2ccnc(Nc3cc(F)c(F)c(F)c3)n2)cc(OC)c1OC` [Compound I-22], the Ki in experiment [1] is above 1000 nM; on CDK-2/Cyclin A, above 5000 nM; at activated JNK3, below 100 nM.
On to `COc1ccc(Nc2nccc(-c3cc(OC)c(OC)c(OC)c3)n2)cc1Cl` [Compound I-35], for which the inhibition constant (Ki) is below 100 nM in experiment [1], above 5000 nM on CDK-2/Cyclin A and below 100 nM at activated JNK3.
On to `COc1cc(-c2ccnc(NCc3ccccc3)n2)cc(OC)c1OC` [Compound I-37], for which the Ki (in experiment [1]; at activated JNK3) was above 1000 nM in each case.
For the compound `COc1cc(-c2ccnc(Nc3cccc(OCc4ccccc4)c3)n2)cc(OC)c1OC` [Compound I-38], the results for the Ki (in experiment [1]; on CDK-2/Cyclin A; at activated JNK3) were below 100 nM, above 5000 nM and below 100 nM, respectively.
Take `COc1cc(-c2ccnc(Nc3cccc(Cl)c3)n2)cc(OC)c1OCCN1CCOCC1` [Compound I-39, (3-Chlorophenyl)-(4[3,5-dimethoxy-4-(2-morpholin-4-yl-ethoxy)phenyl]pyrimidin-2-yl)-amine]: the Ki in experiment [1] was 100 to 1000 nM; on CDK-2/Cyclin A, above 5000 nM; at activated JNK3, below 100 nM.
Consider `COc1c(Cl)cc(-c2ccnc(Nc3cccc(Cl)c3)n2)cc1Cl` [Compound I-41], for which the values for the Ki (in experiment [1]; on CDK-2/Cyclin A; at activated JNK3) were 100 to 1000 nM, above 5000 nM and 100 to 1000 nM, respectively.
Take `COc1c(C)cc(-c2ccnc(Nc3cccc(Cl)c3)n2)cc1C` [Compound I-42]: the Ki was above 1000 nM in experiment [1], above 5000 nM on CDK-2/Cyclin A and below 100 nM on activated JNK3.
`COc1c(Br)cc(-c2ccnc(Nc3cccc(Cl)c3)n2)cc1Br` [Compound I-43]: the Ki in experiment [1] was 100 to 1000 nM; at CDK-2/Cyclin A it was above 5000 nM; on activated JNK3 it was 100 to 1000 nM.
Regarding `COc1cccc(Nc2nccc(-c3cc(OC)c(OCCN4CCOCC4)c(OC)c3)n2)c1` [Compound I-49], the Ki in experiment [1] was 100 to 1000 nM; at CDK-2/Cyclin A, above 5000 nM; at activated JNK3, below 100 nM.
As for `COc1cccc(Nc2nccc(-c3cc(Cl)c(OC)c(Cl)c3)n2)c1` [Compound I-51], the Ki was 100 to 1000 nM in experiment [1], above 5000 nM at CDK-2/Cyclin A and below 100 nM at activated JNK3.
For `COc1cccc(Nc2nccc(-c3cc(C)c(OC)c(C)c3)n2)c1` [Compound I-52], the Ki was 100 to 1000 nM in experiment [1] and below 100 nM at activated JNK3.
For the compound `COc1cc(-c2ccnc(Nc3nc4ccccc4[nH]3)n2)cc(OC)c1OC` [Compound I-65], the Ki in experiment [1] was below 100 nM; at CDK-2/Cyclin A, above 5000 nM. At activated JNK3 (at a 2 μM inhibitor concentration), the “Activity in the JNK3 Inhibition Assay (percent inhibition rating D-F)” value was “D (percent inhibition less than or equal to 33%)”.
For `COc1cc(-c2ccnc(Nc3nnc(C)s3)n2)cc(OC)c1OC` [Compound I-83], the Ki (in experiment [1]; at activated JNK3) was above 1000 nM in each case.
As to `COc1cc(-c2ccnc(Nc3onc(C)c3C)n2)cc(OC)c1OC` [Compound I-87], the Ki in experiment [1] is above 1000 nM; at activated JNK3, 100 to 1000 nM.
For the compound `COc1cc(-c2ccnc(Nc3cc(C)n[nH]3)n2)cc(OC)c1OC` [Compound I-88], the Ki was above 1000 nM in experiment [1] and 100 to 1000 nM at activated JNK3.
Turning to `CCc1ccc(Nc2cc(-c3cc(OC)c(OC)c(OC)c3)ccn2)cc1` [Compound I-158], the inhibitory constant (Ki) in experiment [1] was above 1000 nM.
For `COc1cc(-c2ccnc(Nc3ccc(F)cc3F)c2)cc(OC)c1OC` [Compound I-159], the inhibitory constant (Ki) in experiment [1] was in the range of 100 to 1000 nM.
Turning to `COc1cc(-c2ccnc(Nc3ccc(F)c(F)c3)c2)cc(OC)c1OC` [Compound I-160], the inhibitory constant (Ki) in experiment [1] is above 1000 nM.
As to `COc1c(-c2ccnc(Nc3cccc(OCc4ccccc4)c3)n2)ccc2c1OCCO2` [II-18], the Ki in experiment [1] and in experiment [2] was above 1000 nM throughout.
For the compound `COc1ccc(-c2ccnc(Nc3cccc(Oc4cccc([N+](=O)[O-])c4)c3)n2)c(OC)c1OC` [II-25], the Ki in experiment [1] and in experiment [2] was below 100 nM each time.
With `COc1ccc(-c2ccnc(Nc3cccc(Oc4cccc(N)c4)c3)n2)c(OC)c1OC` [II-26], the Ki in experiment [1] and in experiment [2] was below 100 nM each time.
